From EP0054593A1, “Myocardium protecting pyrrole derivatives with anti-arythmic and anti-platelet aggregation activity, process for their preparation and medicines containing them” (SANOFI S.A., priority 1980, dated 1982)
Read-outs that look alike come from different tables or passages of the source.

What was measured:
[1] = system: tachycardie ventriculaire; experiment: Ventricular arrhythmia model: coronary metal coil, myocardial infarction, telemetered ECG; assay type: in vivo, chiens; settings: 50 mg/kg P.O., dogs; for Effet sur la tachycardie ventriculaire: rythme sinusal ou amélioration: sinus rhythm restored or improvement of the ratio of abnormal to sinus complexes
Source text: Le pouvoir antiarythmique de ces molécules a été apprécié sur un modèle animal d'arythmie ventriculaire.
Des chiens bâtards sont anesthésiés puis soumis à la mise en place, par cathétérisme rétrograde, d'une spire métallique dans le lit coronarien. Dans le même temps, un micro-émetteur modulateur de fréquence est fixé au dos de l'animal et relié à deux électrodes précordiales.
L'animal remis dans son box accuse alors une thrombose progressive de l'artère interventriculaire antérieure. Ainsi, se constitue un infarctus myocardique localisé et transmural, générateur d'une activité électrique anormale, mais répétitive : tachycardie ventriculaire.
Dans cet état, les drogues sont administrées per os (P.O.) et le système télémétré permet de suivre en temps réel l'évolution de la disrythmie.
Un comptage des complexes systoliques sinusaux et pathologies est assuré en permanence par des procédés électroniques.
Ainsi, peut-on quantifier la qualité et la durée d'action du produit.
L'activité des produits essayés sur la tachycardie ventriculaire est exprimée soit par le rétablissement du rythme sinusal, soit par une amélioration notable du rapport : • nombre de complexes anormaux
nombre de complexes sinusaux

[2] = system: agrégation plaquettaire induite par le collagène; experiment: In vitro collagen-induced platelet aggregation in platelet-rich plasma (Born turbidimetric technique); assay type: cell-based, humain; settings: for IC50: 10 min; for inhibition at 100 µM: concentration 100 µM, inhibition of maximal aggregation amplitude versus control, read-out: % d'inhibition
Source text: (§1) Les études in vitro et ex vivo de l'activité antiagrégante ont été réalisées selon la technique turbidiurétrique de Born.
Les études in vitro ont été réalisées sur du plasma riche en plaquettes (PRP) préparé à partir de sang veineux humain.
Les diverses solutions des produits à tester ont été préparées extemporanément. Les CM 7753, 7611, 7640, 7921, 7954, - 40018, 40020 ont été dissous à une concentration de 2 x 10^-2 M dans l'acétone.
Des solutions aqueuses à 2 x 10 ^-3 M ont été préparées pour les CM 40169, 40178, 2 µl des solutions acétoniques des produits ou 40 µl des solutions aqueuses sont incubés pendant 10 min à 37°C avec, respectivement, 388 et 350 µl de PRP. Après cette période d'incubation, 10 µl de la solution de collagène à 40 µg/ml sont additionnés. Pour les contrôles, 2 µl d'acétone ou 40 µl d'eau distillée sont utilisés.
(§2) L'agrégation plaquettaire a été quantifiée par la détermination graphique de l'amplitude maximale d'agrégation (AM).
(§3) Les résultats sont exprimés en % d'inhibition de ce paramètre calculé par rapport au contrôle (100 % d'agrégation). Résultats

ADP = experiment: Ex vivo ADP-induced platelet aggregation after oral dosing (Born technique); assay type: in vivo, babouin; settings: baboons, 50 mg/kg/j oral
Protocol: as §1
(§4) Les études ex vivo chez le babouin ont porté uniquement sur l'activité antiagrégante du CM 7753. Dans ce cas, le CM 7753 est administré par voie buccale à raison de 50 mg/kg/j pendant une période de 5 jours.
(§5) Les prélèvements sanguins pour l'analyse de l'agrégation plaquettaire ont été effectués avant l'administration du produit, 2 h après l'administration de 50 mg/kg au jour 1 et 2 h après la dernière administration au jour 5.
as §2, §3

[3] = system: agrégation plaquettaire induite par le collagène; experiment: Ex vivo collagen-induced platelet aggregation after oral dosing (Born technique); assay type: in vivo, babouin; settings: Papio, 120 h, four baboons, 50 mg/kg/j oral, after 5 days of treatment, read-out: % d'inhibition
Protocol: as §1, §4, §5, §2, §3

Structure (SMILES)	Effet sur la tachycardie ventriculaire: rythme sinusal ou amélioration [1]	inhibition at 100 µM ([2]; human PRP, collagen) [%]	also measured
CC(C)N(CCC(C(N)=O)(c1ccccc1)n1cccc1)C(C)C (stereo not drawn) [CM 7611, Phényl-2 (pyrrolyl-l)-2 diisopropylamino-4 butyramide]	70-90%	–	IC50 [2]: ~30 µM
Cc1ccc(C)n1C(CCN(C(C)C)C(C)C)(C(N)=O)c1ccccc1 (stereo not drawn) [CM 7640]	Rythme sinusal ou amélioration à 90 % durant 90 min	–	Effet sur la tachycardie ventriculaire: duration of effect [1]: Rythme sinusal ou amélioration à 90 % durant 90 min; IC50 [2]: ~30 µM
Cc1ccc(C)n1C(CCN(C(C)C)C(C)C)C(N)=O (stereo not drawn) [CM 7753, (Diméthyl-2,5 pyrrolyl-1)-2 diisopropylamino-4 butyramide]	90%	–	activité antiagrégante vis-à-vis de l'ADP (ADP): activité antiagrégante de moindre importance; inhibition at 50 mg/kg [3]: 100%; IC50 ([2]; human PRP, 10 min incubation at 37°C, collagen, approximate value, read-out: concentration qui inhibe à 50 % l'agrégation plaquettaire): ~100 µM
CC(C)N(CCC(C(N)=O)n1cccc1)C(C)C (stereo not drawn) [CM 7921]	–	20 to 30	–
CC(C)N(CCC(C(N)=O)(c1ccccn1)n1cccc1)C(C)C (stereo not drawn) [CM 7954, (Pyridyl-2)-2 (pyrrolyl-l)-2 diisopropylamino-4 butyramide]	–	–	IC50 ([2]; read-out: concentration qui inhibe à 50 % l'agrégation plaquettaire): ~100 µM
Cc1ccc(C)n1C(CCN1CCN2CCCC2C1)C(N)=O (stereo not drawn) [CM 40018, (Diméthyl-2,5 pyrrolyl)-1 (diaza-1,4 bicyclo[4.3.0]-nonyl-4)-4 butyramide]	–	20 to 30	–
CCc1ccc(CC)n1C(CCN(C(C)C)C(C)C)C(N)=O (stereo not drawn) [CM 40020]	–	20 to 30	–
Cc1ccc(C)n1C(CCN(C(C)C)C1CCCCC1)C(N)=O (stereo not drawn) [CM 40169]	–	20 to 30	–
CCC(C)N(CCC(C(N)=O)n1c(C)ccc1C)C(C)CC (stereo not drawn) [CM 40178]	–	20 to 30	–
